Source: PMC3672920, “Sulfated Metabolites of Polychlorinated Biphenyls Are High-Affinity Ligands for the Thyroid Hormone Transport Protein Transthyretin” (Environmental Health Perspectives, 2013)
Where a name gives a salt, the structure may show the parent alone.

Experiments:
recombinant hSULT1A1 = tested on: T1, recombinant hSULT1A1; assay: Sulfotransferase assay (PAP formation, HPLC); assay type: in vitro ADME, human; conditions: 200 µM PAPS, 37°C, pH 7.0, 10 min; for substrate for human SULT1A1: 0, 10, 20 or 30 µM OH-PCB, cytosolic extract of E. coli expressing hSULT1A1; for specific activity (rate of sulfation) with hSULT1A1, ranking in words: 10–30 µM OH-PCB
T1 construct: purchased Xenotech; host or cells: E. coli
Experimental: Sulfotransferase assay. The assays for sulfation of OH-PCBs catalyzed by hSULT1A1 were conducted according to a previously published procedure ([Liu et al. 2009]). Assay mixtures containing 0, 10, 20, or 30 µM of the potential substrate were preincubated at 37°C in the presence of 200 µM PAPS and 7.5 mM 2-mercaptoethanol in 250 mM potassium phosphate at pH 7.0. After adding 1 µL of cytosolic extract of E. coli expressing hSULT1A1 (10 µg cytosolic protein), the reaction mixture (total volume 30 µL) was incubated for 10 min before the reaction was terminated by the addition of 30 µL methanol. Samples (20 µL) were subsequently analyzed by HPLC to determine the amount of PAP formed in the reaction ([Sheng et al. 2001]).

TTR = molecular target: T2, TTR (Homo sapiens, UniProt P02766); assay: HPLC analysis of PCB sulfates after incubation with TTR (stability, reversibility); assay type: physicochemical; conditions: 5 µM PCB sulfate, 0.5 µM TTR, phosphate buffer pH 7.4, 25°C, up to 120 min
T2 construct: TTR purified from human plasma (> 95%); purchased Sigma-Aldrich; host or cells: human plasma
Experimental: HPLC analysis of PCB sulfates. TTR (0.5 µM) and PCB sulfate (5 µM) were incubated in phosphate buffer (50 mM sodium phosphate, 100 mM NaCl; pH 7.4) at 25°C (± 0.5°C) for 120 min. After 0, 60, and 120 min, 20 µL samples were analyzed for PCB sulfates by chromatography on a C18 HPLC column with a linear acetonitrile gradient (15–95%) in triethylammonium acetate (1% vol/vol; pH 7.5). Detailed HPLC conditions and representative chromatograms are provided in Supplemental Material, Figure S3 (http://dx.doi.org/10.1289/ehp.1206198).
Supplemental Material, Fi g u r e S6: PCB sulfates are stable upon incubation with TTR, and the interaction is non-covalent. 5µM samples of PCB sulfates were incubated for up t o 120 […]
sodium phosphate, 100 mM NaCl, pH 7.4) at 25 °C. Their quantitative recover y (as compared to a corresponding 5 µM PCB sulfate standard) by HPLC indicated non- covalent binding interactions between PCB sulfates and TTR.
(1 picture or pasted object on this page, not shown here)

[1] = molecular target: T3, TTR purified from human plasma (Homo sapiens, UniProt P02766); assay: ANS displacement assay (fluorescence probe displacement) for binding to TTR; conditions: low-affinity (second) binding site on TTR; ligand ≤ 2,000 nM; all data points fit to two-site binding equation; read-out: Kd2
T3 construct: TTR purified from human plasma (> 95%); purchased Sigma-Aldrich; host or cells: human plasma
Experimental: Three fluorescence measurements were averaged per determination, and at least three separate determinations were made at each ligand concentration. The protocol was optimized for ligand concentrations of ≤ 2,000 nM, and assays were conducted at 25°C (± 0.2°C) in quartz cuvettes with a 1-cm path length. […] Binding data were evaluated by fitting the means of each determination to both a one-site plus nonspecific binding equation [y = (Bmax1 × x)/(Kd1 + x) + Ns] and a two-site binding equation [y = (Bmax1 × x)/(Kd1 + x) + (Bmax2 × x)/(Kd2 + x)]. In these equations, Kd1 is the dissociation constant for the TTR-ligand complex and Kd2 is the dissociation constant for the TTR complex with two bound ligands, Bmax1 and Bmax2 are the relative changes in fluorescence required to saturate the respective binding sites and Ns is a constant representing low-affinity interactions. […] The variables x and y represent ligand concentrations and changes in fluorescence (Δ fluorescence), respectively. […] In order to determine Kd2 values, all available data points were fit to the two-site binding equation.

| SMILES | melting point | substrate for human SULT1A1 (recombinant hSULT1A1) | specific activity (rate of sulfation) with hSULT1A1, ranking in words (recombinant hSULT1A1) | recovery of PCB sulfate by HPLC after incubation with TTR (stability) (TTR) | Kd [1] |
| --- | --- | --- | --- | --- | --- |
| O=S(=O)(O)Oc1ccc(-c2cccc(Cl)c2)cc1Cl (as salt: ammonium) [4´PCB 11 sulfate, 3,3´-dichloro-4´-sulfooxy-biphenyl] | 220 °C (dec.) |  |  |  |  |
| Oc1ccccc1-c1ccc(Cl)cc1 [2´OH-PCB 3, 4´-chloro-biphenyl-2-ol] |  | substrates | highest specific activities |  |  |
| O=S(=O)(O)Oc1ccccc1-c1ccc(Cl)cc1 [2´PCB 3 sulfate, 2´-sulfooxy-4-chloro-biphenyl] |  |  |  | quantitatively recovered |  |
| Oc1cccc(-c2ccc(Cl)cc2)c1 [3´OH-PCB 3, 4´-chloro-biphenyl-3-ol] |  | substrates | highest specific activities |  |  |
| O=S(=O)(O)Oc1cccc(-c2ccc(Cl)cc2)c1 [3´PCB 3 sulfate, 3´-sulfooxy-4-chloro-biphenyl] |  |  |  | quantitatively recovered |  |
| Oc1ccc(-c2ccc(Cl)cc2)cc1 [4´OH-PCB 3, 4´-chloro-biphenyl-4-ol] |  | substrates | slightly lower specific activities |  |  |
| Oc1ccc(-c2cccc(Cl)c2)cc1Cl [4´OH-PCB 11, 3,3´-dichloro-biphenyl-4-ol] |  | substrates | slightly lower specific activities |  | 624 ± 207 nM |
| Oc1ccc(-c2ccc(Cl)c(Cl)c2)cc1 [4´OH-PCB 12, 3´,4´-dichloro-biphenyl-4-ol] |  | substrates | slightly lower specific activities |  | 825 ± 47 nM |
| O=S(=O)(O)Oc1ccc(-c2ccc(Cl)cc2)cc1 [4´PCB 3 sulfate, 4-chloro-4´-sulfooxy-biphenyl] |  |  |  | quantitatively recovered |  |
| O=S(=O)(O)Oc1ccc(-c2cccc(Cl)c2)cc1Cl [4´PCB 11 sulfate, 3,3´-dichloro-4´-sulfooxy-biphenyl] |  |  |  | quantitatively recovered | 624 ± 63 nM |
| O=S(=O)(O)Oc1ccc(-c2ccc(Cl)c(Cl)c2)cc1 [4´PCB 12 sulfate, 3,4-dichloro-4´-sulfooxy-biphenyl] |  |  |  | quantitatively recovered | 742 ± 58 nM |
